According to patent US4376770A, “Cephalosporin analogs for oral use” (Shionogi & Co., Ltd., priority 1980, dated 1983):
Read-outs that look alike come from different tables or passages of the source.

Key:
Escherichia coli EC-14 = assay: Protection test in mice challenged intraperitoneally with Escherichia coli EC-14; assay type: in vivo; settings: for ED50: Escherichia coli, 168 h
Experimental: To each group consisting of 5 to 10 mice is challenged 2 to 3×10^5 Escherichia coli EC-14 in 5% mucin intraperitoneally. After 1 hour and 5 hours, a suspension of the ester (1) in the foregoing experiment in 5% acacia solution is administered enterally using a tube into stomach. From the survival rate after 7 days, ED50 of the drug is calculated, and the value in mg/kg is interpreted as the corresponding carboxylic acid.
For using as control, it is necessary to use the effect of the corresponding carboxylic acid. […] Then instead, the ED50 value of the corresponding carboxylic acid (2) on subcutaneous injection is assayed and this is used to evaluate the enteral absorption of the ester (1).
The control value of ED50 for the carboxylic acid (2) is estimated as follows: To each group consisting of 5 to 10 mice challenged by Escherichia coli EC-14 intraperitoneally as in the case of oral experiment above is injected a solution of the carboxylic acid (2) in 0.7% aqueous sodium hydrogen carbonate subcutaneously after 1 and 5 hours after the challenge. The ED50 value is calculated from the survival rate from 7 days and expressed in mg/kg value.

[1] = prior-art compound, statement in words; cited from earlier work
[2] = prior-art compound, statement in words; cited from earlier work; remark: listed apart in the source
[3] = p.o. 1 and 5 hours after challenge, survival after 7 days, value interpreted as the corresponding carboxylic acid, 10080 min
[4] = EC14, po, p.o. 1 and 5 hours after challenge, survival after 7 days, value interpreted as the corresponding carboxylic acid, read-out: ED50 of Ester (1) p.o.
[5] = EC14, sc, subcutaneous in 0.7% aqueous sodium hydrogen carbonate 1 and 5 hours after challenge, survival 7 days, control for ester, read-out: ED50 of Acid (2) subc.
[6] = subcutaneous in 0.7% aqueous sodium hydrogen carbonate 1 and 5 hours after challenge, survival 7 days, control for ester, 10080 min
[7] = subcutaneous in 0.7% aqueous sodium hydrogen carbonate 1 and 5 hours after challenge, survival 7 days, control for ester

## 7β-(2-cyanopropionamido)-7α-methoxy-3-(1-methyl-5-tetrazolyl)thiomethyl-1-dethia-1-oxa-3-cephem-4-carboxylic acid pivaloyloxymethyl ester [No. 1]
Escherichia coli EC-14; p.o. 1 and 5 hours after challenge, survival after 7 days, value interpreted as the corresponding carboxylic acid
  ED50 of Ester (1) p.o.: 1.39 mg/kg

## CCOC(=O)OC(C)OC(=O)C1=C(CSc2nnnn2C)CO[C@H]2N1C(=O)[C@]2(NC(=O)C(C#N)CC)OC (single isomer, unassigned) [No. 6, 7β-(2-cyano-n-butyryl)amino-7α-methoxy-3-(1-methyl-5-tetrazolyl)thiomethyl-1-dethia-1-oxa-3-cephem-4-carboxylic acid 1-(ethoxycarbonyloxy)ethyl ester]
Escherichia coli EC-14; [3]
  ED50 of Ester (1) p.o.: 2.35 mg/kg

## CCOC(=O)OC(C)OC(=O)C1=C(CSc2nnnn2C)CO[C@H]2N1C(=O)[C@]2(NC(=O)C(C#N)CC)OC (single isomer, unassigned) [compound 5]
Escherichia coli EC-14; [4]
  ED50: 2.22 mg/kg

## CCCC(C#N)C(=O)N[C@]1(OC)C(=O)N2C(C(=O)OC(C)OC(=O)OCC)=C(CSc3nnnn3C)CO[C@@H]21 (single isomer, unassigned) [compound 7]
Escherichia coli EC-14; [4]
  ED50: 4.7 mg/kg

## CCCC(C#N)C(=O)N[C@]1(OC)C(=O)N2C(C(=O)OC(C)OC(=O)OCC)=C(CSc3nnnn3C)CO[C@@H]21 (single isomer, unassigned) [compound 8]
Escherichia coli EC-14; [3]
  ED50 of Ester (1) p.o.: 2.82 mg/kg

## CO[C@@]1(NC(=O)C(C)C#N)C(=O)N2C(C(=O)O)=C(CSc3nnnn3C)CO[C@@H]21 (some centres unmarked) [1 (Acid (2))]
Escherichia coli EC-14; [5]
  ED50: 1.68 mg/kg

## CCC(C#N)C(=O)N[C@]1(OC)C(=O)N2C(C(=O)O)=C(CSc3nnnn3C)CO[C@@H]21 (some centres unmarked) [2 (Acid (2))]
Escherichia coli EC-14; [5]
  ED50: 0.47 mg/kg

## CCCC(C#N)C(=O)N[C@]1(OC)C(=O)N2C(C(=O)O)=C(CSc3nnnn3C)CO[C@@H]21 (some centres unmarked) [3 (Acid (2))]
Escherichia coli EC-14; [5]
  ED50: 0.6 mg/kg

## CCCCC(C#N)C(=O)N[C@]1(OC)C(=O)N2C(C(=O)O)=C(CSc3nnnn3C)CO[C@@H]21 (some centres unmarked) [4 (Acid (2))]
Escherichia coli EC-14; [5]
  ED50: 3.18 mg/kg

## CCC(C#N)C(=O)N[C@]1(OC)C(=O)N2C(C(=O)O)=C(CSc3nnnn3C)CO[C@@H]21 (some centres unmarked) [5 (Acid (2))]
Escherichia coli EC-14; [6]
  ED50 of Acid (2) subc.: 0.45 mg/kg

## CCC(C#N)C(=O)N[C@]1(OC)C(=O)N2C(C(=O)O)=C(CSc3nnnn3C)CO[C@@H]21 (some centres unmarked) [6 (Acid (2))]
Escherichia coli EC-14; [6]
  ED50 of Acid (2) subc.: 0.45 mg/kg

## CCCC(C#N)C(=O)N[C@]1(OC)C(=O)N2C(C(=O)O)=C(CSc3nnnn3C)CO[C@@H]21 (some centres unmarked) [7 (Acid (2))]
Escherichia coli EC-14; [7]
  ED50 of Acid (2) subc.: 0.60 mg/kg

## CC(=O)OCC1=C(C(=O)O)N2C(=O)[C@@H](NC(=O)CC#N)[C@H]2OC1 [7β-Cyanoacetamido-1-dethia-1-oxacephalosporanic acid]
[1]
  antibacterial activity: weak antibacterial

## CC(=O)OCC1=C(C(=O)OCOC(=O)C(C)(C)C)N2C(=O)[C@@H](NC(=O)CC#N)[C@H]2SC1 [7β-Cyanoacetamidocephalosporanic acid pivaloyloxymethyl ester]
[2]
  oral absorption: does not show oral absorption sufficient as clinical drugs

## CCCC(C#N)C(=O)N[C@]1(OC)C(=O)N2C(C(=O)O)=C(CSc3nnnn3C)CO[C@@H]21 (some centres unmarked) [8 (Acid (2))]
Escherichia coli EC-14; [7]
  ED50 of Acid (2) subc.: 0.60 mg/kg

## CCC(C#N)C(=O)N[C@]1(OC)C(=O)N2C(C(=O)O)=C(CSc3nncs3)CO[C@@H]21 (some centres unmarked) [9 (Acid (2))]
Escherichia coli EC-14; [5]
  ED50: 0.77 mg/kg

## CCC(C#N)C(=O)N[C@]1(OC)C(=O)N2C(C(=O)O)=C(CSc3nncs3)CO[C@@H]21 (some centres unmarked) [10 (Acid (2))]
Escherichia coli EC-14; [7]
  ED50 of Acid (2) subc.: 0.77 mg/kg

## CCC(C#N)C(=O)N[C@]1(OC)C(=O)N2C(C(=O)O)=C(CSc3nnc(C)s3)CO[C@@H]21 (some centres unmarked) [11 (Acid (2))]
Escherichia coli EC-14; [5]
  ED50: 0.87 mg/kg

## CCC(C#N)C(=O)N[C@]1(OC)C(=O)N2C(C(=O)OCOC(=O)C(C)(C)C)=C(CSc3nncs3)CO[C@@H]21 (some centres unmarked) [No. 9]
Escherichia coli EC-14; [4]
  ED50: 6.5 mg/kg

## CCCC(C#N)C(=O)N[C@]1(OC)C(=O)N2C(C(=O)OCOC(=O)C(C)(C)C)=C(CSc3nnnn3C)CO[C@@H]21 (some centres unmarked) [compound 3]
Escherichia coli EC-14; [4]
  ED50: 5.32 mg/kg

## CCCCC(C#N)C(=O)N[C@]1(OC)C(=O)N2C(C(=O)OCOC(=O)C(C)(C)C)=C(CSc3nnnn3C)CO[C@@H]21 (some centres unmarked) [compound 4]
Escherichia coli EC-14; [4]
  ED50: 29.8 mg/kg

## CCOC(=O)OC(C)OC(=O)C1=C(CSc2nncs2)CO[C@H]2N1C(=O)[C@]2(NC(=O)C(C#N)CC)OC (some centres unmarked) [compound 10]
Escherichia coli EC-14; [4]
  ED50: 3.23 mg/kg

## CCC(C#N)C(=O)N[C@]1(OC)C(=O)N2C(C(=O)OCOC(=O)C(C)(C)C)=C(CSc3nnc(C)s3)CO[C@@H]21 (some centres unmarked) [compound 11]
Escherichia coli EC-14; [4]
  ED50: 3.7 mg/kg
